{"source": "patent US20120301895A1", "about": "“METHODS OF MODULATING BINDING OF SON OF SEVENLESS TO PHOSPHATIDIC ACID AND IDENTIFYING COMPOUNDS THAT MODULATE SUCH BINDING” (THE RESEARCH FOUNDATION OF STATE UNIVERSITY OF NEW YORK, priority 2007, published 2012)", "tested_on": "Ras", "test": "Ras activation pull-down assay (Raf1 Ras binding domain) in MDA-MB-231 cells", "assay_type": "cell-based, human", "conditions": "0.5% serum", "method": "In FIG. 14A, MDA-MB-231 cells were plated and then placed in media containing 0.5% media 24 hr later. 24 hr later, the cells were treated with either DMSO or honokiol (20 μM) as indicated for 2 hr. At this point the cells were harvested and lysates were prepared and treated with the immobilized Ras binding domain of Raf1 as in FIGS. 12A-C. Ras-GTP bound to the Raf1 binding domain was recovered and subjected to Western blot analysis using the Pan-Ras antibody. Total Ras in the cell lysates and actin levels were also examined by Western blot analysis. In FIG. 14B, MDA-MB-231 cells were plated and 24 hr later were shifted to media containing 0.5% serum. The cells were then treated with EGF (200 ng/ml) for 10 min. The cells were also treated with honokiol (20 μM) prior to the addition of EGF for the times indicated. The levels of GTP-bound Ras, total Ras, and actin were then determined as in FIG. 14A. […] Cells were then collected and Ras activation was determined using the pull-down assay as above. Levels of Ras-GTP, Sos, and Ras were determined by Western blot analysis using an antibody that recognized HA. […] Cells were then stimulated with 100 ng/ml EGF for the indicated times (min) and Ras activation was determined as in FIG. 14A. […] Cells were then stimulated with 100 ng/ml EGF for the indicated times (min) and Ras activation was determined as in FIG. 14A. […]", "data": [{"smiles": "C=CCc1ccc(O)c(-c2ccc(O)c(CC=C)c2)c1", "note": "[honokiol, Honokiol]", "values": [{"measurement": "Ras activation induced by EGF", "setting": "honokiol 20 μM before EGF 200 ng/ml 10 min", "result": "suppressed"}, {"measurement": "level of GTP-bound Ras", "setting": "honokiol 20 μM, 2 hr, effect small, but reproducible", "result": "suppressed"}]}]}
